US20120035187A1 (priority 2009, published 2012)
Read-outs that look alike come from different tables or passages of the source.

Experiments:
[1] = tested on: PC12-HS cells; parameters: suppression of cytotoxicity by 6-hydroxy dopa (in words): dose or concentration left out as unconfirmed
[2] = Hydroxyl radical-scavenging activity, ESR (Fenton reaction)
Protocol: Stock solutions, prepared by dissolving NK-4, NK-19, NK-53, NK-100, and NK-557 in DMSO, were respectively diluted with refined water to give concentrations of 3-folds higher than those in Table 14 and used as test sample solutions. As a positive control, a neuroprotectant, “edaravone”, commercialized as “RADICUT®” containing 3-methyl-1-phenyl-2-pyrazoline-5-one as an effective ingredient by Mitsubishi Tanabe Pharma Corporation, Osaka, Japan, was diluted with refined water to give a concentration of 3-folds higher than that in Table 14 for use. To 50 μl of refined water, 50 μl of 89 mM DMPO ([…]) commercialized by Dojindo Laboratories, Kumamoto, Japan, 50 μl of the test sample solution, and 50 μl of an aqueous solution containing 1 mM hydrogen peroxide, 1 mM FeSO4, and 1 mM DTPA, commercialized by Wako Pure Chemical Industries, Osaka, Japan, were added, mixed for 10 seconds using a vortex mixer and allowed to react in an incubator controlled at 37° for 40 seconds. After 30 seconds from completion of the reaction, the resulting reaction mixture was subjected to ESR measurement. A control solution was prepared by the same method as above except for using 50 μl of a diluted edaravone solution as a substitute for the test sample solution, and subjected to ESR measurement.
The reaction mixture for measuring hydroxyl or peroxyl radicals was poured into a flat quartz cell for ESR, set to “FREE RADICAL MONITOR JES-FR30”, an ESR apparatus commercialized by JOEL Ltd., Tokyo, Japan, and ESR was measured according to manual manner. The residual ratio of peroxyl radical (%) was determined as a relative value by defining the ESR value, obtained by using 0.1 M phosphate buffer as a substitute of the test sample solution, as 100. The results are in Tables 14 and 15. […] Therefore, the IC50 of edaravone was determined by another test using its higher concentration, and the result is also shown in Table 14. The conditions of the ESR measurement were set as follows: […]

[3] = tested on: brain ischemia rat; experiment: Brain ischemia (cerebral infarction model) rat: size/volume of cerebral infarction region (TTC); assay type: in vivo; details: for Volume of cerebral infarction region (mm^3): embolus rat, caudal vein
[4] = tested on: brain ischemia rat; experiment: Brain ischemia (cerebral infarction model) rat: behavioral score; assay type: in vivo; parameters: Behavioral score: scale not given here; details: for Behavioral score: embolus rat, caudal vein
Protocol: Male SD rats, seven- to eight-weeks of age and 280 to 330 g body weight, commercialized by Charles River Laboratories Japan Inc., Kanagawa, Japan, were allocated randomly into seven groups, consisting of five to seven rats in each group. Among the seven groups, five groups were subjected to the following surgery as test groups: Rats in the test groups were subcutaneously administered with 0.3 mg/kg body weight of atropine, commercialized by Fuso Pharmaceutical industries, Osaka, Japan. Successively, each rat was anesthetized by administrating 600 mg/kg body weight of urethane, commercialized by Sigma-Aldrich Co., MO, USA, and 60 mg/kg-weight of […], commercialized by Sigma-Aldrich Co., MO, USA, into the peritoneal cavity, and fixed to a fixator under voluntary breathing conditions. The right carotid artery bifurcation was exposed by median incision of the neck without damaging vagus nerve. The common carotid artery and external carotid artery around the right carotid artery bifurcation were exfoliated from surrounding connective tissue and wired respectively using “NESCOSUTURE”, a 6-0 nylon string commercialized by Alfresa Pharma Corporation, Osaka, Japan. Then, the internal carotid artery was tied with the 6-0 nylon string for fixation after insertion of an obturator. Successively, the common carotid artery was incised and a silicon-coated obturator, prepared by a 4-0 nylon string, commercialized by Doccol Corp., CA, USA, was inserted from the common carotid artery into the internal carotid artery at a distance of about 16 mm, and clipped to the common carotid artery (see, for example, Koizumi et al., Cerebral stroke, Vol. 8, No. 1, pp. 1-8 (1986)). By the method, the silicon-coated tip of obturator was inserted through the right carotid artery bifurcation to frontal cerebral artery at a distance of about 2 mm and obstructs the inlet of the medial cerebral artery. After two hours occlusion of the medial cerebral artery while keeping the rat on an isothermal pad controlled at a temperature of 37° C., blood was allowed to reperfuse by withdrawing the obturator. Then, the internal carotid artery was tied near the carotid artery bifurcation for preventing the bleeding from the incised part of the common carotid artery. In the model, the blood was reperfused through the left carotid artery, vertebral artery, basilar artery, frontal and backward communication artery because the right carotid artery was clipped.
NK-4, NK-19, NK-53, NK-100, and NK-557, used in the test, were respectively dissolved in DMSO (product No. “D8418”, commercialized by Sigma-Aldrich Co., MO, USA) to give a concentration of 5 mg/ml and filtrated using “MILLEX-LG SLLG025SS”, a DMSO-resistant membrane filter commercialized by Millipore, MA, USA. Stock […], and then 4 ml/kg body weight of any of the resulting diluted solutions was administered ([…]) to five test groups (test groups 1 to 5) consisting of five or seven rats, through their caudal veins at both after one hour from the occlusion of middle cerebral artery and immediately after initiating reperfusion. After 24 hours from the reperfusion of blood, behavioral and histological evaluations of rats were carried out according to the following procedures: As a control group 1, five rats in one group out of the remaining two groups were subjected to the same surgery as the rats in the test groups 1 to 5, and administered with 4 ml/kg body weight of PBS free of any of the compounds through their caudal veins at both after one hour of the medial cerebral artery occlusion and immediately after the start of reperfusion. As the control group 2, six rats in the remaining one group were subjected to a sham surgery, in which common, external, and internal carotid arteries were clipped and then reperfused their blood without inserting the obturator to each medial cerebral artery. […]

[5] = tested on: PC12-HS cells; experiment: Evaluation A: neurocyte (cell)-growth-promoting action, ALAMAR BLUE; assay type: cell-based, rat
Protocol: Then, the effects of test samples were judged as follows:
The relative value of 140 to 199: Equivalent effect to that of NK-4, symbol (∘); The relative value of 200 or higher: Stronger effect than that of NK-4, symbol ([…]). • The results are in Table 6.
The relative fluorescent intensity of each well was determined by using the fluorescent intensity of each well with cells, which had been cultured by admixing with D-MEM medium containing 10% by volume of FBS without any of the compounds, and the intensity of the resulting culture was regarded as 100%. The results are expressed as cell survival percentages (%) in Table 9. […]
The test was conducted twice for each test sample in a triplicate manner and the data were averaged.
Seven compounds as in Table 17, NK-234, NK-26, NK-9815, NK-9694, NK-28 and NK-147 as well as NK-4, were each dissolved in DMSO to give a concentration of 5 mg/ml. […] The test was conducted twice for each test sample in a triplicate manner and the data were averaged.

[6] = tested on: PC12-HS cells; experiment: Evaluation B: neurite-outgrowth action in presence of NGF; assay type: cell-based, rat; details: for Percentage (%) of cells with neurite outgrowth: 50 μl/well of 2 μg/ml test solution + NGF final 5 ng/ml, 3 days
[7] = target: T1, acetylcholine esterase (AchE) (Rattus norvegicus, UniProt P37136); experiment: biochemical; assay type: biochemical
T1 sequence (P37136 32-614): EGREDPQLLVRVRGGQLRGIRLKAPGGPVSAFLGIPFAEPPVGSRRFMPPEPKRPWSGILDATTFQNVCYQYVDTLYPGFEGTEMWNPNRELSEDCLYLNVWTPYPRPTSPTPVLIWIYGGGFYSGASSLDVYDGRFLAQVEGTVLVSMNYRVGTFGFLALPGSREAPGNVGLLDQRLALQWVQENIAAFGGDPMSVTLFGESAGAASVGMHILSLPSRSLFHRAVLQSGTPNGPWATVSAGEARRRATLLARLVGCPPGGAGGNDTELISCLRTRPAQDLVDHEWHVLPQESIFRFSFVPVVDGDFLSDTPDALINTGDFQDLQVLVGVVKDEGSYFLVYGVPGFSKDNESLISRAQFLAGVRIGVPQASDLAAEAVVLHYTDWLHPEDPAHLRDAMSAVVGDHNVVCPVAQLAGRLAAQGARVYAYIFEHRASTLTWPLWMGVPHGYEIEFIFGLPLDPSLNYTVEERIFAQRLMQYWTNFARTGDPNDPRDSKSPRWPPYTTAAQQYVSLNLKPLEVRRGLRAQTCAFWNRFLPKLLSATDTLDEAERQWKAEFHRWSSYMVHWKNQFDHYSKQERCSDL

[8] = concentration of compound 3.13 μg/ml
[9] = concentration of compound 6.25 μg/ml
[10] = concentration of compound 12.5 μg/ml
[11] = Experiment 13, cerebral-infarction-model rat, administered through caudal vein
[12] = compound concentration 25 ng/ml
[13] = compound concentration 50 ng/ml
[14] = compound concentration 100 ng/ml
[15] = compound concentration 200 ng/ml
[16] = compound concentration 80 ng/ml
[17] = compound concentration 400 ng/ml
[18] = compound concentration 2000 ng/ml
[19] = compound concentration 10000 ng/ml
[20] = 100 μl/well of 100 ng/ml test solution, 3 days, control = 100

CC1=NN(c2ccccc2)C(=O)C1 [Edaravone, 3-methyl-1-phenyl-2-pyrazoline-5-one, reference compound]
suppression of cytotoxicity by 6-hydroxy dopa (in words) [1]: can not suppress the cytotoxicity
IC50 (μg/ml) of hydroxyl radical-scavenging activity [2]: 148.0 µg/mL
Residual ratio of hydroxyl radical (%) ([2]; concentration of compound 2.5 μg/ml): 100%
Residual ratio of hydroxyl radical (%) [2, 8]: 100%
Residual ratio of hydroxyl radical (%) [2, 9]: 100%
Residual ratio of hydroxyl radical (%) [2, 10]: 100%
increment of the volume of cerebral infarction region (in words) [3, 11]: not significantly suppressed
Volume of cerebral infarction region (mm^3) ([3]; dose 0.3 mg per kg body weight): 179 ± 27 mm^3
Volume of cerebral infarction region (mm^3) ([3]; dose 1 mg per kg body weight): 152 ± 28 mm^3
Volume of cerebral infarction region (mm^3) ([3]; dose 3 mg per kg body weight): 183 ± 16 mm^3
behavioral score (in words) [4, 11]: significantly improved
Behavioral score ([4]; dose 0.3 mg per kg body weight): 4.7 ± 0.4
Behavioral score ([4]; dose 1 mg per kg body weight): 3.7 ± 0.5
Behavioral score ([4]; dose 3 mg per kg body weight): 4.8 ± 0.2

CCCCCCN1C=CC(=CC=C(C=Cc2cc[n+](CCCCCC)c3ccccc23)c2cc[n+](CCCCCC)c3ccccc23)c2ccccc21.[I-].[I-] [NK-9694]
suppression of cytotoxicity by 6-hydroxy dopa (in words) ([1]; 6-hydroxy dopa, 24 hours): significantly suppressed
Survival-cell percentage (%) ([1]; 6-hydroxy dopa, 24 hours, compound 0.83 ng/ml): 62 ± 1%
Survival-cell percentage (%) ([1]; 6-hydroxy dopa, 24 hours, compound 3.3 ng/ml): 68 ± 2 %
Survival-cell percentage (%) ([1]; 6-hydroxy dopa, 24 hours, compound 13 ng/ml): 67 ± 0 %
Survival-cell percentage (%) ([1]; 6-hydroxy dopa, 24 hours, compound 50 ng/ml): 62 ± 3%
Survival-cell percentage (%) ([1]; 6-hydroxy dopa, 24 hours, compound 200 ng/ml): 47 ± 1%
Survival-cell percentage (%) ([1]; 6-hydroxy dopa, 24 hours, compound 800 ng/ml): 42 ± 1%
IC50 (μg/ml) of hydroxyl radical-scavenging activity [2]: 3.4 µg/mL
Action of enhancing cell growth (%) [5, 12]: 269 ± 17%
Action of enhancing cell growth (%) [5, 13]: 123 ± 88%
Action of enhancing cell growth (%) [5, 14]: 402 ± 111%
Action of enhancing cell growth (%) [5, 15]: 320 ± 36%
Action on neurite outgrowth (%) [6, 16]: 45 ± 8%
Action on neurite outgrowth (%) [6, 17]: 55 ± 14%
Action on neurite outgrowth (%) [6, 18]: 38 ± 12%
Action on neurite outgrowth (%) [6, 19]: 10< %

CCCCCCN1C(C)=CS\C1=C/C=C(\C=C\c1scc(C)[n+]1CCCCCC)c1scc(C)[n+]1CCCCCC.[I-].[I-] [NK-392]
Action of enhancing cell growth (%) [5, 20]: 560%
Action of enhancing cell growth (%) [5, 12]: 349 ± 63%
Action of enhancing cell growth (%) [5, 13]: 601 ± 93%
Action of enhancing cell growth (%) [5, 14]: 607 ± 71%
Action of enhancing cell growth (%) [5, 15]: 460 ± 41%
Percentage (%) of cells with neurite outgrowth [6]: 44%
Action on neurite outgrowth (%) [6, 16]: 44 ± 12%
Action on neurite outgrowth (%) [6, 17]: 48 ± 2%
Action on neurite outgrowth (%) [6, 18]: 76 ± 8%
Action on neurite outgrowth (%) [6, 19]: 81 ± 10%

CCCCCN1C=CC(=CC=C(C=Cc2cc[n+](CCCCC)c3ccccc23)c2cc[n+](CCCCC)c3ccccc23)c2ccccc21.[I-].[I-] [NK-9815]
Residual ratio of AchE activity (%) ([7]; concentration of compound 0.78 μg/ml): 82 ± 2%
Residual ratio of AchE activity (%) ([7]; concentration of compound 1.56 μg/ml): 98 ± 24%
Residual ratio of AchE activity (%) [7, 8]: 93 ± 36%
Residual ratio of AchE activity (%) [7, 9]: 94 ± 16%
Residual ratio of AchE activity (%) [7, 10]: 56 ± 7 %
Residual ratio of AchE activity (%) ([7]; concentration of compound 25 μg/ml): 41 ± 14 %
Residual ratio of AchE activity (%) ([7]; concentration of compound 50 μg/ml): 24 ± 4 %
IC50 ([7]; concentration that suppresses AchE activity by 50%, calculated from residual ratios): 17.3 µg/mL
Action of enhancing cell growth (%) [5, 12]: 304 ± 26%
Action on neurite outgrowth (%) [6, 16]: 68 ± 12%
Action on neurite outgrowth (%) [6, 17]: 62 ± 12%
Action on neurite outgrowth (%) [6, 18]: 56 ± 2%
Action on neurite outgrowth (%) [6, 19]: 11 ± 2%

CCCCCCCCCCCN1C(C)=CS\C1=C/C=C(/C=C/c1scc(C)[n+]1CCCCCCCCCCC)c1scc(C)[n+]1CCCCCCCCCCC.[I-].[I-] [NK-9640]
Action of enhancing cell growth (%) [5, 20]: 191%
Percentage (%) of cells with neurite outgrowth [6]: 13%
